From paper PMC9965906, “Discovery and Development Strategies for SARS-CoV-2 NSP3 Macrodomain Inhibitors” (Pathogens, 2023)
Several values for one entry are separate records, joined by “and”; a condition that tells them apart may be missing. Equal entries are not always repeated. Where two headings read alike, the source gives them in different places.

Molecular target: SARS-CoV-2 NSP3 Mac1 (Severe acute respiratory syndrome coronavirus 2, UniProt P0DTD1)
Assay: biochemical
Assay type: binding
Settings: for inhibition at 125 µM: read-out: Inhibition at top concentration of 125 µM (%); for IC50 in µM / IC50: top concentration 125 µM, 8-point 1:1 dilution; for IC50: read-out: IC50; for inhibitory activity in FDA-approved library screen: primary screen at the set screening concentration
[1] = MIDAS hit compounds and analogues, 125 µM
[2] = MIDAS hit compounds and analogues, duplicate
[3] = BioAscent virtual screening hit compounds, duplicate
[4] = MIDAS compound library primary screen
[5] = FDA-approved compound library primary screen, 50 µM, single shot

Row | Compound | inhibition at 125 µM [1] [%] | IC50 in µM [2] | other results
1 | COc1ccc(-c2cc(C(=O)Nc3nnc[nH]3)c3ccccc3n2)cc1 [IAL-MD0079, COC=1C=CC(=CC1)C=2C=C(C(=O)NC3=NN=CN3)C=4C=CC=CC4N2] | 16.3 | Not measurable | 
2 | CCn1ncc2c(C(=O)N(C)CC(=O)NCc3ccco3)cc(-c3cccs3)nc21 [IAL-MD0062, CCN1N=CC=2C(=CC(=NC12)C3=CC=CS3)C(=O)N(C)CC(=O)NCC4=CC=CO4] | 42.2 | Not measurable | 
3 | Cc1nn(C)c2nc(-c3ccccc3)cc(C(=O)N3CCN(C(=O)C4CC4)CC3)c12 [IAL-MD0045, CC1=NN(C)C=2N=C(C=C(C(=O)N3CCN(CC3)C(=O)C4CC4)C12)C=5C=CC=CC5] | 47.5 | Not measurable | 
4 | CC(C)n1ncc2c(C(=O)N3CCCCC3C(=O)N3CCCC3)cc(-c3cccs3)nc21 (stereo not shown) [IAL-MD0080, CC(C)N1N=CC=2C(=CC(=NC12)C3=CC=CS3)C(=O)N4CCCCC4C(=O)N5CCCC5] | 45.9 | Not measurable | 
5 | Oc1cc2ccccc2nc1-c1ccccc1 [BCC0093974, Oc1cc2ccccc2nc1-c1ccccc1] |  |  | inhibition at 25 µM [3]: 38.6%
6 | CC(C)n1ncc2c(C(=O)N3CCc4ccccc4C3)cc(-c3cccs3)nc21 [IAL-MD0060, CC(C)N1N=CC=2C(=CC(=NC12)C3=CC=CS3)C(=O)N4CCC=5C=CC=CC5C4] | 1.9 | Not measurable | 
7 | CC(=O)Nc1cccc(NC(=O)c2cc(-c3cccs3)nc3c2cnn3C(C)C)c1 [IAL-MD0032, CC(C)N1N=CC=2C(=CC(=NC12)C3=CC=CS3)C(=O)NC=4C=CC=C(NC(=O)C)C4] | 20.3 | Not measurable | 
8 | Cc1nn(C)c2nc(-c3cccs3)cc(C(=O)NC3CCOCC3)c12 [IAL-MD0121, CC1=NN(C)C=2N=C(C=C(C(=O)NC3CCOCC3)C12)C4=CC=CS4] | 17.8 | Not measurable | 
9 | CCn1ncc2c(C(=O)Nc3cccc(-c4nnco4)c3)cc(-c3cccs3)nc21 [IAL-MD0061, CCN1N=CC=2C(=CC(=NC12)C3=CC=CS3)C(=O)NC=4C=CC=C(C4)C5=NN=CO5] | 7 | Not measurable | 
10 | CCOc1ccc2c(C)c(C(=O)N[C@@H]3CCNC[C@H]3O)oc2c1OCC [IAL-MD0127, O=C(C(O1)=C(C)C2=C1C(OCC)=C(OCC)C=C2)N[C@H]3[C@H](O)CNCC3.[H]Cl] |  |  | inhibition at 25 µM [4]: 40%; IC50 [2]: 38 µM; inhibition at 125 µM: 66.5%
11 | Cc1cccn2c(=O)c3cc(C(=O)O)n(C)c3nc12 [BCC0049478, Cc1cccn2c(=O)c3cc(C(=O)O)n(C)c3nc12] |  |  | inhibition at 25 µM [3]: 30.6%
12 | Nc1ccc2oc(-c3cccnc3)nc2c1 [BCC0105824, Nc1ccc2oc(-c3cccnc3)nc2c1] |  |  | inhibition at 25 µM [3]: 30.1%
13 | CN1CCN(C(=O)c2cncc(-c3ccnc4c3ccn4C)n2)CC1 [IAL-MD0146, O=C(C1=CN=CC(C2=C3C(N(C)C=C3)=NC=C2)=N1)N4CCN(C)CC4] | 3.7 | Not measurable | 
14 | CN(C)C1CCN(C(=O)c2ccc(-c3ncnc4[nH]ccc34)cc2)C1 (stereo not shown) [IAL-MD0141, O=C(N1CC(N(C)C)CC1)C2=CC=C(C3=C4C(NC=C4)=NC=N3)C=C2.O=CO] | 81.3 |  | IC50 [2]: 25.2 µM
15 | Cn1ccc2c(-c3ncccc3C(N)=O)ccnc21 [IAL-MD0136, O=C(N)C1=C(C2=C3C(N(C)C=C3)=NC=C2)N=CC=C1] | 49.7 | Not measurable | 
16 | COCCCOc1ccnc(C[S+]([O-])c2nc3ccccc3[nH]2)c1C (stereo not shown) [rabeprazole, reference compound] |  |  | inhibitory activity in FDA-approved library screen: could yet not measure any inhibitory activity
17 | O=C(O)CCc1nc(-c2ccccc2)c(-c2ccccc2)o1 [oxaprozin, reference compound] |  |  | inhibitory activity in FDA-approved library screen: could not be identified in our screen
18 | CCCNC(=O)c1ccc(-c2ccnc3c2ccn3C)o1 [IAL-MD0148, O=C(NCCC)C1=CC=C(C2=C3C(N(C)C=C3)=NC=C2)O1] |  |  | Inhibition at top concentration of 125 µM (%) [1]: Not measurable due to compound precipitation; IC50 [2]: 7.7 µM
19 | CC(=O)N1CCN(C(=O)c2cc(-c3cccs3)nc3c2c(C)nn3C)CC1 [IAL-MD0054, CC(=O)N1CCN(CC1)C(=O)C=2C=C(N=C3N(C)N=C(C)C23)C4=CC=CS4] | 41.5 | Not measurable | 
20 | C=CCCCCCCCCC(=O)[O-].C=CCCCCCCCCC(=O)[O-].[Zn+2] [Zinc undecylenate, reference compound] |  |  | NSP3 Mac1 inhibition at 50 µM (%) [5]: 68.0%
21 | Cc1cc(CN(C)C(=O)c2cc(-c3cccs3)nc3c2cnn3C(C)C)no1 [IAL-MD0073, CC(C)N1N=CC=2C(=CC(=NC12)C3=CC=CS3)C(=O)N(C)CC=4C=C(C)ON4] | 47 | Not measurable | 
22 | CCn1ncc2c(C(=O)NC(C)c3ccccn3)cc(-c3cccs3)nc21 (stereo not shown) [IAL-MD0119, CCN1N=CC=2C(=CC(=NC12)C3=CC=CS3)C(=O)NC(C)C=4C=CC=CN4] | 6.3 | Not measurable | 

Row | Compound | inhibition at 125 µM [1] [%] | IC50 in µM [2] | other results
23 | CN(C)C(=O)c1ccc(-c2ccnc3c2ccn3C)nc1 [IAL-MD0140, O=C(N(C)C)C1=CN=C(C2=C3C(N(C)C=C3)=NC=C2)C=C1] |  |  | Inhibition at top concentration of 125 µM (%) [1]: Not measurable due to compound precipitation; IC50 [2]: 6.9 µM
24 | CN(C)C(=O)c1ccc(-c2ccnc3c2ccn3C)o1 [IAL-MD0133, O=C(N(C)C)C1=CC=C(C2=C3C(N(C)C=C3)=NC=C2)O1] |  |  | Inhibition at top concentration of 125 µM (%) [1]: Not measurable due to compound precipitation; IC50 [2]: 8.5 µM
25 | CCn1ncc2c(C(=O)NCc3ccc(OC)nc3)cc(-c3cccs3)nc21 [IAL-MD0117, CCN1N=CC=2C(=CC(=NC12)C3=CC=CS3)C(=O)NCC=4C=CC(OC)=NC4] | 9.7 | Not measurable | 
26 | COc1ccc(-c2cc(C(=O)O)c3c(C)cc(C)cc3n2)cc1 [IAL-MD0029, COC=1C=CC(=CC1)C=2C=C(C(=O)O)C=3C(C)=CC(C)=CC3N2] | 61.2 |  | IC50 [2]: 76 µM and 75.9 µM
27 | CCCN(CC(=O)Nc1ccccc1C)C(=O)c1cc(-c2cccs2)nc2c1cnn2CC [IAL-MD0093, CCCN(CC(=O)NC=1C=CC=CC1C)C(=O)C=2C=C(N=C3N(CC)N=CC23)C4=CC=CS4] | 7.7 | Not measurable | 
28 | COc1ccc(-c2cc(C(=O)NC3CC3)c3ccccc3n2)cc1 [IAL-MD0103, COC=1C=CC(=CC1)C=2C=C(C(=O)NC3CC3)C=4C=CC=CC4N2] | 38.4 | Not measurable | 
29 | NNc1nncc2ccccc12 [hydralazine, reference compound] |  |  | inhibitory activity in FDA-approved library screen: no NSP3 Mac1 inhibition
30 | CC(=O)N1CCN(C(=O)c2cc(-c3ccccc3)nc3c2cnn3C(C)C)CC1 [IAL-MD0082, CC(C)N1N=CC=2C(=CC(=NC12)C=3C=CC=CC3)C(=O)N4CCN(CC4)C(=O)C] |  | Not measurable | Inhibition at top concentration of 125 µM (%) [1]: Not measurable
31 | CNC(=O)c1ccc(C(=O)N2CCC(c3c[nH]c4ncccc34)CC2)cn1 [IAL-MD0115, CNC(=O)C=1C=CC(=CN1)C(=O)N2CCC(CC2)C3=CNC=4N=CC=CC34] | 9.3 | Not measurable | 
32 | CC(C)n1ncc2c(C(=O)N3CCC(C)(CO)CC3)cc(-c3cccs3)nc21 [IAL-MD0106, CC(C)N1N=CC=2C(=CC(=NC12)C3=CC=CS3)C(=O)N4CCC(C)(CO)CC4] | 32.1 | Not measurable | 
33 | Candicidin [reference compound] |  |  | NSP3 Mac1 inhibition at 50 µM (%) [5]: 50.1%; NSP3 Mac1 inhibition at 50 µM (%) (FDA-approved compound library primary screen, 50 µM, single shot, listed as candicidin): 50%
34 | CC(=O)N1CCc2nc(N)c(C#N)c(-c3cccc(-c4ccco4)c3)c2C1 [ARUK4004310-001-001, CC(=O)N1CCc2nc(c(c(c2C1)-c1cccc(c1)-c1ccco1)C#N)N] |  |  | inhibition at 25 µM [4]: 61%
35 | CCCNC(=O)c1cc(-c2ccc(OC)cc2)nc2ccccc12 [IAL-MD0098, CCCNC(=O)C=1C=C(N=C2C=CC=CC12)C=3C=CC(OC)=CC3] | 22 | Not measurable | 
36 | CN(C)c1ccc(-c2ccc3ccccc3n2)cc1 [BCC0083752, CN(C)c1ccc(-c2ccc3ccccc3n2)cc1] |  |  | inhibition at 25 µM [3]: 46.8%
37 | CCn1ncc2c(C(=O)N3CCN(C(=O)c4ccccc4)CC3)cc(-c3ccccc3)nc21 [IAL-MD0069, CCN1N=CC=2C(=CC(=NC12)C=3C=CC=CC3)C(=O)N4CCN(CC4)C(=O)C=5C=CC=CC5] |  | Not measurable | Inhibition at top concentration of 125 µM (%) [1]: Not measurable
38 | CC(C)n1ncc2c(C(=O)N3CCCC(C)(O)C3)cc(-c3cccs3)nc21 (stereo not shown) [IAL-MD0086, CC(C)N1N=CC=2C(=CC(=NC12)C3=CC=CS3)C(=O)N4CCCC(C)(O)C4] | 47.7 | Not measurable | 
39 | CCCc1nc2c(C)cc(-c3nc4ccccc4n3C)cc2n1Cc1ccc(-c2ccccc2C(=O)O)cc1 [telmisartan, reference compound] |  |  | inhibitory activity in FDA-approved library screen: could yet not measure any inhibitory activity
40 | O=C(O)c1cc(-c2ccc(OC(F)F)cc2)nc2ccccc12 [IAL-MD0089, OC(=O)C=1C=C(N=C2C=CC=CC12)C=3C=CC(OC(F)F)=CC3] | 5.7 | Not measurable | 
41 | N[C@@H](C(=O)N[C@@H]1C(=O)N2C(C(=O)O)=C(Cl)CS[C@H]12)c1ccccc1 [cefaclor, reference compound] |  |  | inhibitory activity in FDA-approved library screen: could yet not measure any inhibitory activity
42 | Cc1ccc(C(=O)Nc2ccc(S(=O)(=O)O)c3cc(S(=O)(=O)O)cc(S(=O)(=O)O)c23)cc1NC(=O)c1cccc(NC(=O)Nc2cccc(C(=O)Nc3cc(C(=O)Nc4ccc(S(=O)(=O)O)c5cc(S(=O)(=O)O)cc(S(=O)(=O)O)c45)ccc3C)c2)c1 [Suramin hexasodium, reference compound] |  |  | inhibition at 50 µM [5]: 55.8%; inhibitory activity in FDA-approved library screen: confirm the inhibitory activity
43 | COc1ncccc1C(=O)N1CCC(c2c[nH]c3ncccc23)CC1 [IAL-MD0084, COC=1N=CC=CC1C(=O)N2CCC(CC2)C3=CNC=4N=CC=CC34] | 13.2 | Not measurable | 
